The target of one data set is T1, Human chymase (Homo sapiens, UniProt P23946).
T1 construct: purchased East Coast Biologics
T1 sequence (P23946 22-247): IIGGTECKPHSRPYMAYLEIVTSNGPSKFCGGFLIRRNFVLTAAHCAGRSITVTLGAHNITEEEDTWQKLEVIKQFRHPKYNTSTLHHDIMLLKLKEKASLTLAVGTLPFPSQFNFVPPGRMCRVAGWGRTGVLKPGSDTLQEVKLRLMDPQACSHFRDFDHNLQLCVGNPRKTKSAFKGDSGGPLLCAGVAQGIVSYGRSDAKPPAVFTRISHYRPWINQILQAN
Description: Measurement of human chymase enzyme inhibitory activity. As to conditions: for IC90: concentration at which 90% of enzyme activity was inhibited; for pIC50: peptide substrate N-Succinyl-Ala-Ala-Pro-Phe-p-nitroanilide 2.5 mmol/L, 37° C., pH 7.6. It counts as biochemical. The method, then: Human Chymase Pure (hereunder called chymase; East Coast Biologics) was stored in a freezer at −20° C., and diluted with distilled water immediately prior to use. N-Succinyl-Ala-Ala-Pro-Phe-p-nitroanilide (hereunder called the peptide substrate; Sigma Aldrich) was prepared with dimethylsulfoxide (hereunder called DMSO) as a 50 mmol/L solution, and stored in a freezer at −20° C. The compound of the present invention and the comparative compounds were prepared with DMSO as 10 mmol/L solutions, and stored in a freezer at −20° C. On the day of measurement, the solutions of the compound of the present invention and the comparative compound were diluted in stages with 50% DMSO to 10 times concentration of the final target concentration, and the solution were prepared. 10 μL solutions of the compounds of the present invention and the comparative compounds, and 80 μL solution of a peptide substrate (final concentration 2.5 mmol/L) diluted with assay buffer (50 mmol/L Tris-HCl, 150 mmol/L NaCl, 50 units/mL heparin (pH 7.6)) were added to a 96-well microplate, incubated for 10 minutes at 37° C. 10 μL of chymase was added to a final concentration of 0.1 μg/L to initiate enzyme activity. Absorbance at 405 nm was monitored for 5 minutes at 30-second intervals, and the reaction speed (Δm O.D./minute) was measured. 10 μL of 50% DMSO was added to the control well and blank well in place of the solutions of the compound of the present invention and the comparative compound. Moreover, 10 μL of distilled water was added to the blank well in place of chymase. Given 100% as the value of the control well reaction speed minus the blank well reaction speed, the reaction speeds of the wells containing the compound of the present invention and the comparative compounds were calculated as percentages.

Data set [1] is described as follows: Measurement of cell toxicity using HepG2 human liver cancer cell lines (ATP, Celltiter Glo). It counts as cell-based. Conditions: human, HepG2 cells; 24 hours of exposure, ATP concentration. The method, then:
(§1) The cells were then exposed to the compound of the present invention and the comparative compounds for 24 hours. The compound of the present invention and the comparative compounds were dissolved with DMSO, and then diluted 100 times with culture liquid comprising L-glutamine, non-essential amino acids and 1% bovine fetal serum which were added to minimum essential medium (MEM). […] The cells were dissolved with the assay buffer in the measurement kit, and the ATP concentration released from the cells was measured based on luciferin-luciferase enzyme activity. Light emission was measured with a SpectraMax plate reader (Molecular Device).

The test system of data set [2] is HepG2 human liver cancer cell lines. The data set is described as above. It counts as cell-based. As to conditions: 24 hours of exposure, ATP concentration; concentration that produced toxicity in 10% of cells. On the procedure: as §1
Data set [3] can be described thus: Stability experiment using human liver microsomes. It counts as in vitro ADME. Conditions: 5 μmol/L, 0.5 mg/mL human liver microsomes with NADPH, 15 minutes, 37° C. On the procedure:
5 μL of the compound of the present invention and each comparative compound (10 mmol/L DMSO solution) was diluted with 195 μL of 50% acetonitrile aqueous solution to prepare 250 μmol/L solutions of the compound of the present invention and comparative compound. 245 μL of 0.5 mg/mL human liver microsomes (0.1 mol/L pH 7.4 phosphate buffer solution) containing NADPH Co factor (NADPH Regenerating System Solution A (BD Bioscience) and NADPH Regenerating System Solution B (BD Bioscience), each diluted 10 times and 50 times with 0.1 mol/L pH 7.4 phosphate buffer (NADP+2.6 mmol/L)) were added to a reaction container that had been warmed in advance to 37° C. in a water bath, and pre-incubated for 5 minutes, after which 5 μL solution of the compound of the present invention and the comparative compound was added to initiate a reaction (final concentration 5 μmol/L). Immediately after initiation 20 μL was collected, and 20 μL was added to 180 μL of acetonitrile containing I.S. (internal standard (warfarin)) to terminate the reaction. 180 μL of 50% acetonitrile aqueous solution was added to this 20 μL on a plate with a protein exclusion filter, stirred and filtered by suction. The filtrate was used as a standard sample. After incubating the reaction solution for 15 minutes, 20 μL of a liver microsome solution was collected, and added to 180 μL of acetonitrile containing I.S. (internal standard (warfarin)) in order to terminate the reaction. 180 μL of 50% acetonitrile aqueous solution was added to this 20 μL on a plate with a protein exclusion filter, stirred and filtered by suction. The filtrate was used as a reaction sample. The survival ratio (%) was calculated by injecting 5 μL of sample solution into a LC-MS/MS (Thermo Scientific Discovery Max), dividing the peak area ratio of the reaction sample (the compound of the present invention and the comparative compound/I.S.) by the peak area ratio of the standard sample, and multiplying by 100.
A general note: Liver microsomes are vesicles of endoplasmic reticulum, rich in cytochrome P450 enzymes.

Experimental findings from patent US8569504B2, “Imidazopyridine compound” (Ono Pharmaceutical Co., Ltd., priority 2009, dated 2013) are described below.

pIC50: −log10 of the molar value.

Take `Cc1cccc2[nH]cc(Cc3c(-c4ccc5ccccc5c4C(=O)O)nc4ccccn34)c12` [Example 7, 2-[3-[(4-methyl-1H-indol-3-yl)methyl]imidazo[1,2-a]pyridin-2-yl]-1-naphthoic acid]: on Human chymase, the IC90 was found to be 63 nM and the pIC50 was 9.00. In addition, the IC50 at 24 h in data set [1] was determined as 132000 nM. Further, the “Cell toxicity in HepG2 human liver cancer cell lines IC10” value (from here on “Cell toxicity”) in data set [2] was 58000 nM. Further, the “Human liver Ms stability (survival ratio)” value in data set [3] is 93%.

On Human chymase, `Cc1ccc2nc(-c3ccccc3C(=O)O)c(Cc3cn(C)c4cccc(C)c34)n2c1` [Example 11, 2-{3-[(1,4-dimethyl-1H-indol-3-yl)methyl]-6-methylimidazo[1,2-a]pyridin-2-yl}benzoic acid] showed a 90% effect concentration (IC90) of 270 nM and a pIC50 of 7.64. In data set [1], this compound came in with an IC50 at 24 h of more than 400000 nM. Further, the “Cell toxicity” value in data set [2] came out at 248000 nM. In data set [3], the “Human liver Ms stability (survival ratio)” value came to 86%.

On Human chymase, `CCn1cc(Cc2c(-c3ccccc3C(=O)O)nc3ccccn23)c2c(C)cccc21` [Example 15, 2-{3-[(1-ethyl-4-methyl-1H-indol-3-yl)methyl]imidazo[1,2-a]pyridin-2-yl}benzoic acid] showed an IC90 of 240 nM and a pIC50 of 7.52. It took 267000 nM to reach half-maximal inhibition in data set [1] (IC50 at 24 h). The “Cell toxicity” value in data set [2] came to 115000 nM. Further, the “Human liver Ms stability (survival ratio)” value in data set [3] worked out at 87%.

In the case of `Cc1cccc2c1c(Cc1c(-c3ccc4ccccc4c3C(=O)O)nc3ccccn13)cn2CCN1CCOCC1` [Example 23-(4), 2-[3-({4-methyl-1-[2-(4-morpholinyl)ethyl]-1H-indol-3-yl}methyl)imidazo[1,2-a]pyridin-2-yl]-1-naphthoic acid], at Human chymase, the 90% effect level (IC90) was put at 8 nM and the negative-log IC50 (pIC50) was 8.70. Further, inhibition in data set [1] was half-maximal at 173000 nM (IC50 at 24 h). Besides, the “Cell toxicity” value in data set [2] was 79000 nM. For the same compound, the “Human liver Ms stability (survival ratio)” value in data set [3] came to 100%.

The compound `Cc1cccc2scc(Cn3c(SCCCC(=O)O)nc4ccccc43)c12` [Comparative Compound 1, 4-(1-((4-methylbenzothiophen-3-yl)methyl)benzimidazol-2-ylthio)butanoic acid, reference compound] gave an IC50 at 24 h in data set [1] of 81000 nM. In data set [2], the “Cell toxicity” value was found to be 45000 nM.

Consider `Cc1cccc2scc(Cc3c(SCCCC(=O)O)nc4ccccn34)c12` [Comparative Compound 2, 4-[3-(4-methyl-benzo[b]thiophen-3-ylmethyl)-imidazo[1,2-a]pyridin-2-ylsulfanyl]butanoic acid, reference compound], for which, at Human chymase, the IC90 came out at 2800 nM and the pIC50 was 6.47. The compound also yielded an IC50 at 24 h in data set [1] of 219000 nM. Moreover, the “Cell toxicity” value in data set [2] came to 66000 nM.

At Human chymase, `Cc1cccc2[nH]cc(Cc3c(-c4ccc5ccccc5c4C(=O)O)nc4ccc(F)cn34)c12` [Example 16, 2-{6-fluoro-3-[(4-methyl-1H-indol-3-yl)methyl]imidazo[1,2-a]pyridin-2-yl}-1-naphthoic acid] gave an IC90 of 6 nM and a negative logarithm of the IC50 (pIC50) of 9.00. The compound further yielded a half-inhibitory concentration (IC50) at 24 h in data set [1] of 131000 nM. In addition, the “Cell toxicity” value in data set [2] amounted to 29000 nM. In data set [3], the “Human liver Ms stability (survival ratio)” value is on record as 88%.

On Human chymase, `Cc1cccc2c1c(Cc1c(-c3ccccc3C(=O)O)nc3ccccn13)cn2C` [Example 13, 2-{3-[(1,4-dimethyl-1H-indol-3-yl)methyl]imidazo[1,2-a]pyridin-2-yl}benzoic acid] showed an IC90 of 200 nM and a pIC50 of 7.55. Besides, the IC50 at 24 h in data set [1] is 424000 nM. Also, the “Cell toxicity” value in data set [2] amounted to 135000 nM. Further, in data set [3], the “Human liver Ms stability (survival ratio)” value amounted to 93%.

Regarding `Cc1c(F)ccc2[nH]cc(Cc3c(-c4ccccc4C(=O)O)nc4ccccn34)c12` [Example 19, 2-{3-[(5-fluoro-4-methyl-1H-indol-3-yl)methyl]imidazo[1,2-a]pyridin-2-yl}benzoic acid], at Human chymase, the 90% effect level (IC90) was put at 120 nM and the negative-log IC50 (pIC50) was 7.96. The same compound gave an IC50 at 24 h in data set [1] of 247000 nM. Moreover, the “Cell toxicity” value in data set [2] was determined as 70000 nM. Moreover, the “Human liver Ms stability (survival ratio)” value in data set [3] was found to be 100%.

Take `Cc1cccc2c1c(Cn1c(Sc3ccccc3C(=O)O)nc3ccccc31)cn2C` [Comparative Compound 4, 2-([1-[(1,4-dimethyl-1H-indol-3-yl)methyl]-1H-benzimidazol-2-yl]thio)benzoic acid, reference compound]: on Human chymase, the IC90 stood at 790 nM and the pIC50 is 7.12. This compound also displayed an IC50 at 24 h in data set [1] of 84000 nM. Further, the “Cell toxicity” value in data set [2] turned out to be 53000 nM.

On Human chymase, `O=C(O)c1ccccc1Sc1nc2ccccc2n1Cc1cccc2ccccc12` [Comparative Compound 3, 2-{[1-(1-naphthylmethyl)-1H-benzimidazol-2-yl]thio}benzoic acid, reference compound] showed an IC90 of 1600 nM and a pIC50 of 6.89. In data set [1], this compound returned an IC50 at 24 h of 40000 nM. Moreover, in data set [2], the “Cell toxicity” value was found to be 29000 nM.

The IC90 is the point of the concentration-response curve where the effect stands at 90%. For orientation: pIC50 means −log10 of the IC50, conventionally taken in molar units. Read a low pIC50 as a high IC50. In general, IC50 refers to the midpoint of a concentration-inhibition curve.
